Test results published in patent US7282210B2, “Process for the in vitro culture of different stages of tissular parasites” (priority 1993, dated 2007).

How the values were obtained:
[1] = tested on: cultured amastigote forms of L. mexicana, L. amazonensis, L. braziliensis and L. chagasi; experiment: direct leishmanicidal effect of nitric oxide on cultured amastigote forms; assay type: cell-based, Leishmania
Text: (§1) Also, one of the mechanisms leading to lysis of the amastigote forms was elucidated.
The culture kinetics as well as the differentiation of the amastigote forms into promastigote forms were monitored after this treatment.

[2] = tested on: cis-aconitase; experiment: enzymatic activities of amastigote forms treated or not treated with NO; assay type: biochemical, Leishmania
Text: as §1

[3] = tested on: untreated promastigote forms of L. mexicana; experiment: growth inhibition by pentamidine, untreated promastigote forms; assay type: cell-based; settings: Leishmania mexicana, read-out: IC50 (concentration of pentamidine for which a growth inhibition of 50% is observed)
Text: (§2) In the stage of putting in contact, the parasitic forms are used at concentrations of 10^6 parasite/ml and the activity of the medicaments is studied at increasing concentrations.
(§3) Promastigote forms of L. mexicana resistant to pentamidine are obtained by medicamentous pressure in vitro and have a resistance index of about 30. They are then transformed according to the culture method already described into corresponding cultured amastigote forms which, after determination of the IC50, retain the resistance to pentamidine induced in the promastigote forms.
(§4) For the promastigotes the value is 27 and for the amastigotes it is 26.

[4] = tested on: resistant amastigote forms of L. mexicana; experiment: growth inhibition by pentamidine, resistant amastigote forms; assay type: cell-based
Text: as §2, §3, §4

[5] = tested on: resistant promastigote forms of L. mexicana; experiment: growth inhibition by pentamidine, resistant promastigote forms; assay type: cell-based; settings: Leishmania mexicana, read-out: IC50 (concentration of pentamidine for which a growth inhibition of 50% is observed)
Text: as §2, §3, §4

[6] = medium containing alpha-ketoglutaric acid (3 mM) and cis-aconitate (3 mM) added immediately to parasites treated with NO

In the case of O=C(O)CCC(=O)C(=O)O [alpha-ketoglutaric acid], the “growth of NO-treated amastigote forms” value [1, 6] is reported as “restore the growth of the amastigote forms”.

With [N]=O [NO, nitric oxide] the “leishmanicidal effect on cultured amastigote forms” value ([1]; gaseous NO (1%) carried by nitrogen (99%), pulsed for 15 minutes) was “leishmanicidal activity” and the “effect on cis-aconitase activity” value [2] was “inhibition of cis-aconitase”.

In the case of O=C(O)/C=C(/CC(=O)O)C(=O)O [cis-aconitate], the “growth of NO-treated amastigote forms” value [1, 6] is reported as “restore the growth of the amastigote forms”.

In the case of N=C(N)c1ccc(OCCCCCOc2ccc(C(=N)N)cc2)cc1 [pentamidine], the IC50 [3] is reported as 1.2 ± 0.05 µM, the IC50 ([4]; Leishmania mexicana, read-out: IC50 (concentration of pentamidine for which a growth inhibition of 50% is observed)) is reported as 32 ± 1 µM and the “resistance index (IC50 of the resistant strain/IC50 of the untreated strain)” value ([4]; amastigotes) is reported as 26. For the same compound, the IC50 [5] was 33 µM.

O=S(=O)([O-])[O-].[Fe+2] [FeSO4] was tested, and the “growth of NO-treated amastigote forms” value ([1]; medium containing 100 μm of FeSO4 added immediately to parasites treated with NO) was “restore the growth of the amastigote forms”.
